Results taken from paper PMC6804162, “Inhibitory Effects of Novel 7-Substituted 6-iodo-3-O-Flavonol Glycosides against Cholinesterases and β-secretase Activities, and Evaluation for Potential Antioxidant Properties” (Molecules, 2019).
Values joined by “and” are separate entries in the source; they are usually repeats but may differ in a detail not shown here. Identical values can stand only once.

Tests used:
[1] = target: acetylcholinesterase (AChE) (Homo sapiens, UniProt P22303); assay: biochemical; type: biochemical; conditions: for SI BChE/AChE: AChE selectivity index = IC50 (BChE)/IC50 (AChE); for IC50: mean ± SD, three independent experiments
Sequence of acetylcholinesterase (AChE) (P22303 32-614): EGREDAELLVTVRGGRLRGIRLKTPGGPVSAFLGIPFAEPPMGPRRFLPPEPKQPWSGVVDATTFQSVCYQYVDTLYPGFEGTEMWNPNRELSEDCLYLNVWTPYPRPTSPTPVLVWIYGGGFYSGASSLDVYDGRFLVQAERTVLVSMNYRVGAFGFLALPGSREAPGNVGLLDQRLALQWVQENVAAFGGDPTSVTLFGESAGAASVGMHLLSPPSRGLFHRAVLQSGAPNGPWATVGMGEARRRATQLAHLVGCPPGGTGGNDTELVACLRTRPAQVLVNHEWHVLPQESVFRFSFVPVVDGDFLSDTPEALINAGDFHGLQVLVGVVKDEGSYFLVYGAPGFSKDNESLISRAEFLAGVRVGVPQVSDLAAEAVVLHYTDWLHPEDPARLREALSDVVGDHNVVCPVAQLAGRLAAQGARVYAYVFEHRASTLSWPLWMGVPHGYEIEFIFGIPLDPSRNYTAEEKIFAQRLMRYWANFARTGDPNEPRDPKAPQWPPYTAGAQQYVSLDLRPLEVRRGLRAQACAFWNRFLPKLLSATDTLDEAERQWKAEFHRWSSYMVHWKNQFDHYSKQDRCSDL
Protocol: (§1) The IC50 and standard deviation values were determined graphically using Graph Pad Prism.

[2] = target: butyrylcholinesterase (BChE) (Homo sapiens, UniProt P06276); assay: biochemical; conditions: for SI AChE/BChE: BChE selectivity index = IC50 (AChE)/IC50 (BChE); for IC50: mean ± SD, three independent experiments
Sequence of butyrylcholinesterase (BChE) (P06276 29-602): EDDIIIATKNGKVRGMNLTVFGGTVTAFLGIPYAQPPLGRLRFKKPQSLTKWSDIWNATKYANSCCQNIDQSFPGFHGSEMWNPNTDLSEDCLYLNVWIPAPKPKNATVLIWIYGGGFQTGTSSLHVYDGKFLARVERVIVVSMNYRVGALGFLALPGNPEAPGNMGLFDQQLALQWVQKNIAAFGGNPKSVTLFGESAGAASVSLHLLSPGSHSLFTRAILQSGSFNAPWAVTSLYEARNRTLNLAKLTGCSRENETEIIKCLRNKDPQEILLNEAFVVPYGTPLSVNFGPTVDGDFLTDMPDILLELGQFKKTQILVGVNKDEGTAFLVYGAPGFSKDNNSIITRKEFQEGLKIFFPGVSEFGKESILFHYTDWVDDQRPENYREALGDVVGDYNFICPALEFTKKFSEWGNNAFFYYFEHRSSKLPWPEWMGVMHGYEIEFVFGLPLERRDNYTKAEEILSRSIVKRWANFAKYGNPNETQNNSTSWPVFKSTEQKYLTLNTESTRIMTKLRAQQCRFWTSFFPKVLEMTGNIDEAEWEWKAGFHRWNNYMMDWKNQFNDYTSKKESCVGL
Protocol: as §1

[3] = DPPH radical scavenging activity assay; conditions: DPPH 0.20 mM in methanol, 45 min in the dark, mean ± SD
Protocol: The test compounds at various concentration ranging from (0 to 40 µM) in DMSO were mixed with a solution of DPPH (0.20 mM) in methanol. […] All tests and analyses were run in triplicate and averaged. The inhibition was calculated in terms of percentage using the formula below:DPPH radical scavenged (%) = [(AbC ‒ AbS)/AbC] × 100(2) where AbC is absorbance of control and AbS the absorbance of the test sample.

β-secretase (BACE-1) [4] = target: T1, β-secretase (BACE-1) (Homo sapiens, UniProt P56817); assay: In vitro β-secretase inhibitory FRET assay; type: biochemical; conditions: 60 min incubation, read-out: IC50 (µM) against β-secretase activity
T1 construct: purchased Pan Vera; host or cells: baculovirus expression system
T1 sequence (P56817 46-501): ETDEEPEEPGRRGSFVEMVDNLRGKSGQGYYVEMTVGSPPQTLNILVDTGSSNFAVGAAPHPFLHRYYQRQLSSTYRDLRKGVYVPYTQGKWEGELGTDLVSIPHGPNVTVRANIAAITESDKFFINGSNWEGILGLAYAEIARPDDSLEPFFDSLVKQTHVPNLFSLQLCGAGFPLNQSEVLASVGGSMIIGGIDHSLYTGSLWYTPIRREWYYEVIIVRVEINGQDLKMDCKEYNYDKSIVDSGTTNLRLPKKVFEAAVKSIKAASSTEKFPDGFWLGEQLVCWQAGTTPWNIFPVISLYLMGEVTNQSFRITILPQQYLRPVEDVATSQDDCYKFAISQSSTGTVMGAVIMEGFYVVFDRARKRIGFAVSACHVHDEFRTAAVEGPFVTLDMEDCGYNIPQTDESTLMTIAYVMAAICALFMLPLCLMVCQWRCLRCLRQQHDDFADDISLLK
Protocol: The inhibition ratio was calculated using the following equation:Inhibition (%) = [1 − (S − S0)/(C − C0)] × 100(1) where C is the fluorescence of control (enzyme, assay buffer, and substrate) after 60 min of incubation, C0 is the fluorescence of control at time 0, S is the fluorescence of tested samples (enzyme, sample solution, and substrate) after 60 min of incubation, and S0 the fluorescence of the tested samples at time 0.

AChE = AChE (Homo sapiens, UniProt P22303); assay: Kinetic study against AChE (Lineweaver–Burk and Dixon plots); type: biochemical; conditions: for Mode of inhibition of AChE: Lineweaver–Burk plot; for Ki: from Dixon plots, read-out: Inhibition constant (Ki) against AChE
Sequence of AChE (P22303 32-614): as the sequence (P22303 32-614) above
Protocol: (§2) The Lineweaver–Burk plots were drawn to determine the type of inhibition these compounds display against AChE and BChE (refer to Figure S2. In the Supplementary Material for the corresponding graphs).
(§3) Kinetic evaluation of 2l and 2p against ChEs or β-secretase were conducted following similar procedures previously employed for the corresponding flavonol precursors.

BChE = BChE (Homo sapiens, UniProt P06276); assay: Kinetic study against BChE (Lineweaver–Burk and Dixon plots); type: biochemical; conditions: for Mode of inhibition of BChE: Lineweaver–Burk plot; for Ki: from Dixon plots
Sequence of BChE (P06276 29-602): as the sequence (P06276 29-602) above
Protocol: as §2, §3

β-secretase (BACE-1) [5] = target: T1, β-secretase (BACE-1); assay: Kinetic study against β-secretase (Lineweaver–Burk and Dixon plots); type: biochemical; conditions: for Mode of inhibition of β-secretase: Lineweaver–Burk plot; for Ki: from Dixon plots, read-out: Ki for inhibition of β-secretase
Protocol: as §2, §3

Structure (SMILES)	SI BChE/AChE [1]	IC50 [1]	SI AChE/BChE [2]	IC50 [2] [µM]	IC50 [3] [µM]	IC50 (β-secretase (BACE-1) [4]) [µM]	Mode of inhibition of AChE (AChE)	Ki (AChE) [µM]	Mode of inhibition of BChE (BChE)	Ki (BChE) [µM]	Mode of inhibition of β-secretase (β-secretase (BACE-1) [5])	Ki (β-secretase (BACE-1) [5]) [µM]
CC(=O)OCC1OC(Oc2c(-c3ccc(Cl)cc3)oc3cc(Br)c(I)cc3c2=O)C(OC(C)=O)C(OC(C)=O)C1OC(C)=O (stereo not drawn) [Compound 2k, 7-Bromo-2-(4-chlorophenyl)-6-iodo-4H-chromen-4-one-3-O-2,3,4,6-O-tetraacetyl-β-d-glucopyranoside]	5.78	5.18 ± 0.01 µM	0.17	29.95 ± 0.02	11.4 ± 0.02							
COc1cc2oc(-c3ccc(Cl)cc3)c(O[C@@H]3O[C@H](COC(C)=O)[C@@H](OC(C)=O)[C@H](OC(C)=O)[C@H]3OC(C)=O)c(=O)c2cc1I [Compound 2o, 2-(4-Chlorophenyl)-6-iodo-7-methoxy-4H-chromen-4-one-3-O-2,3,4,6-O-tetraacetyl-β-d-glucopyranoside]	1.28	28.12 ± 0.06 µM	0.78	36.1 ± 0.02								
CC(=O)OCC1OC(Oc2c(-c3ccc(Cl)cc3)oc3cc(Cl)c(I)cc3c2=O)C(OC(C)=O)C(OC(C)=O)C1OC(C)=O (stereo not drawn) [Compound 2g, 7-Chloro-2-(4-chlorophenyl)-6-iodo-4H-chromen-4-one-3-O-2,3,4,6-O-tetraacetyl-β-d-glucopyranoside]	0.23	31.44 ± 0.13 µM	4.35	7.15 ± 0.01	13.1 ± 0.01							
CC(=O)OCC1OC(Oc2c(-c3ccccc3)oc3cc(Cl)c(I)cc3c2=O)C(OC(C)=O)C(OC(C)=O)C1OC(C)=O (stereo not drawn) [Compound 2e, 7-Chloro-6-iodo-2-phenyl-4H-chromen-4-one-3-O-2,3,4,6-O-tetraacetyl-β-d-glucopyranoside]	0.26	34.44 ± 0.03 µM	3.85	9.03 ± 0.12								
O=C1O[C@H]([C@@H](O)CO)C(O)=C1O [Ascorbic acid, ascorbic acid, reference compound]					5.5 ± 0.02							
CC(=O)OC[C@H]1O[C@@H](Oc2c(-c3ccc(F)cc3)oc3cc(Cl)c(I)cc3c2=O)[C@H](OC(C)=O)[C@@H](OC(C)=O)[C@@H]1OC(C)=O [Compound 2f, 7-Chloro-2-(4-fluorophenyl)-6-iodo-4H-chromen-4-one-3-O-2,3,4,6-O-tetraacetyl-β-d-glucopyranoside]	0.44	70.66 ± 0.01 µM	2.27	31.09 ± 0.04								
O=c1c(O)c(-c2ccc(O)c(O)c2)oc2cc(O)cc(O)c12 [Quercetin, quercetin, reference compound]					3.1							
CC(=O)OC[C@H]1O[C@@H](Oc2c(-c3ccccc3)oc3cc(F)c(I)cc3c2=O)[C@H](OC(C)=O)[C@@H](OC(C)=O)[C@@H]1OC(C)=O [Compound 2a, 7-Fluoro-6-iodo-2-phenyl-4H-chromen-4-one-3-O-2,3,4,6-O-tetraacetyl-β-d-glucopyranoside]	1.40	18.72 ± 0.03 µM	0.71	26.17 ± 0.01								
COc1ccc(-c2oc3cc(OC)c(I)cc3c(=O)c2OC2OC(COC(C)=O)C(OC(C)=O)C(OC(C)=O)C2OC(C)=O)cc1 (stereo not drawn) [Compound 2p, 6-Iodo-7-methoxy-2-(4-methoxyphenyl)-4H-chromen-4-one-3-O-2,3,4,6-O-tetraacetyl-β-d-glucopyranoside]	0.57	9.19 ± 0.03 µM	1.75	5.21 ± 0.03	17.9 ± 0.04	25.2 ± 0.15	non-competitive	2.36 ± 0.32	non-competitive	1.62 ± 0.03	non-competitive	2.94 ± 0.02
CC(=O)OC[C@H]1O[C@@H](Oc2c(-c3ccc(Cl)cc3)oc3cc(F)c(I)cc3c2=O)[C@H](OC(C)=O)[C@@H](OC(C)=O)[C@@H]1OC(C)=O [Compound 2c, 7-Fluoro-2-(4-Chlorophenyl)-6-iodo-4H-chromen-4-one-3-O-2,3,4,6-O-tetraacetyl-β-d-glucopyranoside]	1.25	24.74 ± 0.03 µM	0.80	30.84 ± 0.04								
CC(=O)OC[C@H]1O[C@@H](Oc2c(-c3ccccc3)oc3cc(Br)c(I)cc3c2=O)[C@H](OC(C)=O)[C@@H](OC(C)=O)[C@@H]1OC(C)=O [Compound 2i, 7-Bromo-6-iodo-2-phenyl-4H-chromen-4-one-3-O-2,3,4,6-O-tetraacetyl-β-d-glucopyranoside]	0.14	70.56 ± 0.03 µM	7.14	9.79 ± 0.04								
CC(=O)OC[C@H]1O[C@@H](Oc2c(-c3ccc(F)cc3)oc3cc(Br)c(I)cc3c2=O)[C@H](OC(C)=O)[C@@H](OC(C)=O)[C@@H]1OC(C)=O [Compound 2j, 7-Bromo-2-(4-fluorophenyl)-6-iodo-4H-chromen-4-one-3-O-2,3,4,6-O-tetraacetyl-β-d-glucopyranoside]	1.31	31.2 ± 0.05 µM	0.76	40.93 ± 0.04								
CC(=O)OC[C@H]1O[C@@H](Oc2c(-c3ccc(F)cc3)oc3cc(F)c(I)cc3c2=O)[C@H](OC(C)=O)[C@@H](OC(C)=O)[C@@H]1OC(C)=O [Compound 2b, 7-Fluoro-(4-fluorophenyl)-6-iodo-4H-chromen-4-one-3-O-2,3,4,6-O-tetraacetyl-β-d-glucopyranoside]	0.78	28.2 ± 0.02 µM	1.3	21.9 ± 0.04								
COc1ccc(-c2oc3cc(F)c(I)cc3c(=O)c2O[C@@H]2O[C@H](COC(C)=O)[C@@H](OC(C)=O)[C@H](OC(C)=O)[C@H]2OC(C)=O)cc1 [Compound 2d, 7-Fluoro-6-iodo-2-(4-methoxyphenyl)-4H-chromen-4-one-3-O-2,3,4,6-O-tetraacetyl-β-d-glucopyranoside]	0.32	60.4 ± 0.05 µM	3.13	19.25 ± 0.11								
COc1cc2oc(-c3ccccc3)c(O[C@@H]3O[C@H](COC(C)=O)[C@@H](OC(C)=O)[C@H](OC(C)=O)[C@H]3OC(C)=O)c(=O)c2cc1I [Compound 2m, 6-Iodo-7-methoxy-2-phenyl-4H-chromen-4-one-3-O-2,3,4,6-O-tetraacetyl-β-d-glucopyranoside]	0.53	56.21 ± 0.01 µM	1.89	29.8 ± 0.06								
COc1ccc(-c2oc3cc(Cl)c(I)cc3c(=O)c2O[C@@H]2O[C@H](COC(C)=O)[C@@H](OC(C)=O)[C@H](OC(C)=O)[C@H]2OC(C)=O)cc1 [Compound 2h, 7-Chloro-6-iodo-2-(4-methoxyphenyl)-4H-chromen-4-one-3-O-2,3,4,6-O-tetraacetyl-β-d-glucopyranoside]	0.39	25.92 ± 0.02 µM	2.56	10.1 ± 0.06								
COc1ccc(-c2oc3cc(Br)c(I)cc3c(=O)c2OC2OC(COC(C)=O)C(OC(C)=O)C(OC(C)=O)C2OC(C)=O)cc1 (stereo not drawn) [Compound 2l, 7-Bromo-6-iodo-2-(4-methoxyphenyl)-4H-chromen-4-one-3-O-2,3,4,6-O-tetraacetyl-β-d-glucopyranoside]	1.43	5.05 ± 0.02 µM	0.70	7.24 ± 0.03	21.6 ± 0.03	18.3 ± 0.01	non-competitive	1.38 ± 0.62	non-competitive	1.51 ± 0.04	non-competitive	2.42 ± 0.05
COc1cc2oc(-c3ccc(F)cc3)c(OC3OC(COC(C)=O)C(OC(C)=O)C(OC(C)=O)C3OC(C)=O)c(=O)c2cc1I (stereo not drawn) [Compound 2n, 2-(4-Fluorophenyl)-6-Iodo-7-methoxy-4H-chromen-4-one-3-O-2,3,4,6-O-tetraacetyl-β-d-glucopyranoside]	5.49	6.33 µM and 6.23 µM	0.18	34.21 ± 0.02	14.4 ± 0.02							
